**Q.** Which melting point does the source give for `Cc1c(Cl)nc(-c2ccc([N+](=O)[O-])o2)nc1Cl` here?
**A.** Its melting point is 174 to 175 °C.

**Q.** For `O=C(Nc1cc(C(F)(F)F)cc(C(F)(F)F)c1)[C@H]1CC=CC[C@H]1C(=O)O` (relative stereo), which melting point is on record?
**A.** Its melting point is 166 to 167 °C.

**Q.** For `Cc1ncn(-c2ccc(CNC(=O)c3nc4n(c(=O)c3OCc3ccccc3)CCOC4(C)C)c(F)c2)n1`, which melting point is on record?
**A.** The melting point was 183 to 185 °C.

**Q.** For `O=C(C(=O)N(CCN1CCOCC1)S(=O)(=O)C(F)(F)F)N(CCN1CCOCC1)S(=O)(=O)C(F)(F)F`, which melting point is on record?
**A.** Its melting point is 62 to 64 °C.

**Q.** Which melting point does the source give for `CCC(=O)N(CC)c1cccc(-c2ccc3nnc(C)n3n2)c1` here?
**A.** The melting point was 145 to 148 °C.

**Q.** With `CCC(=O)NCC(COS(C)(=O)=O)c1cccc2ccc(OC)cc12` (stereo not given) as the compound, how does the melting point read?
**A.** The melting point was 118 to 120 °C.

**Q.** With `COc1ccc(N2CCOCC2)cc1NC(=S)C(=O)O` as the compound, how does the melting point read?
**A.** The melting point was 156 to 158 °C.

**Q.** With `CN(C)C1CCC2c3ccccc3Sc3ccc(C(F)(F)F)cc3N2C1` (stereo not given) as the compound, how does the melting point read?
**A.** The melting point was 118 to 122 °C.

**Q.** With `COc1ccc(S(N)(=O)=O)cc1C(=O)NC1CCN(C2CCCCC2)C1` (stereo not given) as the compound, how does the melting point read?
**A.** Its melting point is 184 to 187 °C.

**Q.** With `CC(C)(C)NCCOp1oc2c(C(C)(C)C)cc(C(C)(C)C)cc2c2cc(C(C)(C)C)cc(C(C)(C)C)c2o1` as the compound, how does the melting point read?
**A.** The melting point was 135 to 138 °C.

**Q.** For `COc1cc(N)c(Cl)cc1C(=O)NC1CCN2CCCC2C1` (stereo not given), which melting point is on record?
**A.** Its melting point is 193 to 194 °C.

**Q.** For `COC(=O)c1c2ccccc2nc2ccc(Cl)cc12`, which melting point is on record?
**A.** Its melting point is 130 °C.

**Q.** With `CCS(=O)c1cnc(Cl)c(Cl)c1` (stereo not given) as the compound, how does the melting point read?
**A.** Its melting point is 78 to 79 °C.

**Q.** Which melting point does the source give for `O=Cc1cn(-c2ccccc2)nc1-c1ccc([N+](=O)[O-])o1` here?
**A.** The melting point was 208 to 209 °C.

**Q.** For `CS(=O)c1c(C(F)(F)F)nn(-c2c(Cl)cc(C(F)(F)F)cc2Cl)c1N` (stereo not given), which melting point is on record?
**A.** The melting point was 142 to 145 °C.

**Q.** For `Cc1ccc(CNC(=O)C2=C(C(=O)Nc3cc(OC4CCCC4)c(Cl)cc3F)CCCC2)cc1`, which melting point is on record?
**A.** The melting point was 168 to 169 °C.

**Q.** With `CCC12CCC(=O)C=C1c1c(cc(O)c(Cl)c1Cl)C2` (stereo not given) as the compound, how does the melting point read?
**A.** Its melting point is 260 to 265 °C.

**Q.** For `CCCCCCCCCCCCCCCc1cccc(OC)c1C(=O)O`, which melting point is on record?
**A.** Its melting point is 65 to 72 °C.

**Q.** With `N#Cc1cc(C2CCCCC2)c(C(=O)O)cn1` as the compound, how does the melting point read?
**A.** Its melting point is 225 to 230 °C.

**Q.** With `CC(C)(C)OC(=O)NCC1CCN(CC2(C(=O)O)CCCC2)CC1` as the compound, how does the melting point read?
**A.** The melting point was 150 °C.

**Q.** With `Clc1cc(CC2(Cc3ccnc(Cl)c3)c3ccccc3-c3ncccc32)ccn1` as the compound, how does the melting point read?
**A.** Its melting point is 188 to 190 °C.

**Q.** Which melting point does the source give for `Cc1ccc(S(=O)(=O)OCC2COc3ccc([N+](=O)[O-])c(C=CC=O)c3O2)cc1` (stereo not given) here?
**A.** The melting point was 138 to 140 °C.

**Q.** With `CC(C)CSc1c(-c2ccc(S(C)(=O)=O)cc2)cnn(CC(F)(F)F)c1=O` as the compound, how does the melting point read?
**A.** Its melting point is 135 to 138 °C.

**Q.** With `Brc1ccc2c(c1)C1(c3ccccc3-c3ccccc31)c1ccccc1-2` as the compound, how does the melting point read?
**A.** Its melting point is 181 to 183 °C.

**Q.** Which melting point does the source give for `COC(=O)c1ccc(CCC(CS(=O)(=O)c2ccc(Oc3ccc(OC(F)(F)F)cc3)cc2)N(O)C=O)cc1` (stereo not given) here?
**A.** The melting point was 153 to 154 °C.

**Q.** With `CC(C)C(=O)NCCCn1c(CCO)nc2c(N)nc3ccccc3c21` as the compound, how does the melting point read?
**A.** Its melting point is 196 to 198 °C.

**Q.** With `CC(C)(SCCCCCCNS(=O)(=O)c1ccc(Cl)cc1)C(=O)O` as the compound, how does the melting point read?
**A.** The melting point was 93 to 94 °C.

**Q.** For `CCn1c2c(c3ccccc31)S(=O)(=O)N(C)C(C(=O)Nc1ccccc1)=C2O`, which melting point is on record?
**A.** Its melting point is 268 °C.

**Q.** With `CCC(CC)Nc1c(C)cnc(Oc2c(C)cc(Cl)cc2C)c1N` as the compound, how does the melting point read?
**A.** Its melting point is 72 to 74 °C.

**Q.** With `Cc1ccc(Nc2ncccc2O)cc1` as the compound, how does the melting point read?
**A.** The melting point was 134 to 135 °C.

**Q.** For `Cc1ccnc(-c2ccoc2)c1OC1SCC(O)C(O)C1O` (stereo not given), which melting point is on record?
**A.** Its melting point is 95 °C.

**Q.** For `Nc1ccc(Oc2ccccc2Oc2ccc(N)cc2)cc1`, which melting point is on record?
**A.** Its melting point is 135 to 136 °C.

**Q.** For `CC(C)(C)C(=C=CCl)c1ccccc1-c1ccccc1`, which melting point is on record?
**A.** Its melting point is 85 to 86 °C.

**Q.** For `CC1(C)COP(N(CCCN(C2CC(C)(C)NC(C)(C)C2)P2OCC(C)(C)CO2)C2CC(C)(C)NC(C)(C)C2)OC1`, which melting point is on record?
**A.** Its melting point is 102 °C.

**Q.** For `Cc1cc(OC(F)(F)C(F)Cl)nc(N)n1` (stereo not given), which melting point is on record?
**A.** The melting point was 73 to 74 °C.

**Q.** For `CCS(=O)(=O)Nc1cccc(C=C2c3ccccc3CCc3ccccc32)c1`, which melting point is on record?
**A.** The melting point was 180 °C.

**Q.** Which melting point does the source give for `CCOC(=O)[C@@H]([C@H](N)C(=O)O)[C@@H](C)O` here?
**A.** Its melting point is 150 to 151 °C.

**Q.** For `CC(=O)Nc1ccc(Oc2ncc(Cl)cn2)cc1`, which melting point is on record?
**A.** The melting point was 202 °C.

**Q.** Which melting point does the source give for `Cc1nc2cccc3n(CCCCCCNS(=O)(=O)CC(F)(F)F)c(=O)c1n23` here?
**A.** The melting point was 141 to 143 °C.

**Q.** Which melting point does the source give for `O=[N+]([O-])c1ccc(NN=C(c2ccccc2)c2ccccc2)c([N+](=O)[O-])c1` here?
**A.** Its melting point is 232 to 234 °C.

**Q.** With `CCC(Oc1ccc(Cl)cc1)C(=O)OC1CC(O)C=C2C=CC(C)C(CCC3CC(O)CC(=O)O3)C21` (mixture of isomers) as the compound, how does the melting point read?
**A.** The melting point was 140 to 142 °C.

**Q.** For `CN(C)c1ccc2c(c1Br)C(=O)C1(CC1)O2`, which melting point is on record?
**A.** The melting point was 79 to 81 °C.

**Q.** For `NC(=O)c1c(N)oc2ccccc2c1=O`, which melting point is on record?
**A.** The melting point was 264 to 266 °C.

**Q.** For `CCOC(=O)c1c(O)c2cc(Cl)ccc2n(C)c1=O`, which melting point is on record?
**A.** The melting point was 141 to 143 °C.

**Q.** Which melting point does the source give for `Cc1ccc(S(=O)(=O)N(c2ccc(C#N)cc2C#N)C(C)C)cc1` here?
**A.** The melting point was 157 to 158 °C.

**Q.** Which melting point does the source give for `COc1ccc(CC(=O)NCc2ccccc2-c2ccccc2C(=O)NCCc2cccnc2)cc1` here?
**A.** Its melting point is 116 °C.

**Q.** For `O=C1C(=O)c2ccccc2C2=C1SCC1(CCN(C(=O)c3cccnc3)CC1)O2`, which melting point is on record?
**A.** Its melting point is 218 to 220 °C.

**Q.** For `O=c1[nH]c2cc(Cl)c(Cl)cc2[n+]([O-])c1-c1cccc(Oc2ccccc2)c1`, which melting point is on record?
**A.** The melting point was 258 to 260 °C.

**Q.** Which melting point does the source give for `CC(C)(C)OC(=O)N1CC2CN(c3nc(C4=NOC(c5c(F)cccc5F)C4)cs3)CC2C1` (stereo not given) here?
**A.** The melting point was 78.9 to 80.2 °C.

**Q.** With `CC1=C(CCC(C)CCC(=O)O)C(=O)c2ccccc2C1=O` (stereo not given) as the compound, how does the melting point read?
**A.** The melting point was 58 to 61 °C.
